Data: patent US20220280543A1, “DDX17 AND NLRC4 TARGETING FOR INFLAMMATORY DISEASES” (University of Virginia Patent Foundation, priority 2019, published 2022)

System: NLRC4 and NLRP3 complex
Assay: Assembly of NLRC4 and NLRP3 complex in human RPE cells, Proximity Ligation Assay
Format: cell-based
Details: biotinylated Alu RNA 100 pmol, PLA (FIG. 37)
Procedure: FIG. 37. Alu RNA (SEQ ID NO: 86) induces the assembly of NLRC4 and NLRP3 complex. Human RPE cells were transfected with biotinylated Alu RNA (SEQ ID NO: 86 at 100 pmol) by LIPOFECTAMINE™ 3000 brand transfection reagent (Lipo; ThermoFisher Scientific). The assembly of NLRC4 and NLRP3 complex was evaluated by Proximity Ligation Assay (PLA). […] The signal of NLRC4-NLRP3 complexes is indicated by the white arrow.
Human RPE cells were treated with biotinylated Alu RNA (SEQ ID NO: 86 at 100 pmol). The assembly of NLRC4 and NLRP3 complex was evaluated by Proximity Ligation Assay (PLA).

With Alu RNA: human SINE RNA, SEQ ID NO: 86 the “assembly of NLRC4 and NLRP3 complex” value was “induced the assembly”.
